{"source": "patent US11401278B2", "about": "“Macrocyclic indole derivatives” (The Broad Institute, Inc., priority 2017, dated 2022)", "key": {"SUDHL5 [1]": {"tested_on": "SUDHL5", "assay": "Antiproliferation assay (Assay 7), SUDHL5", "assay_type": "cell-based", "conditions": "CellTiter-Glo, median, read-out: Antiproli SUDHL5 [M] (median) IC50", "how_it_was_run": "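Cells were exposed to compound for 72 hours at 37° C. Viability was measured by CellTiter-Glo luminescence. A day 0 plate read at the start served as the time-zero reference.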"}, "BCL-XL": {"target": "BCL-XL (Homo sapiens (Human), UniProt Q07817)", "sequence (Q07817 other isoform, or with tags, fused parts or gaps)": "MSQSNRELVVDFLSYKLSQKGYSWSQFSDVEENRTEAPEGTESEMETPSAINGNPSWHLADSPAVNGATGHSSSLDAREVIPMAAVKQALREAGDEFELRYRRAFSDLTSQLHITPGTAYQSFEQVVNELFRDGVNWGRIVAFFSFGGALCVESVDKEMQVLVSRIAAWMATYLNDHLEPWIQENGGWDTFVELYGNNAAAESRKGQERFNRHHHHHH", "assay": "Protein-protein interaction assay BCL-XL/Bad BH3 peptide (BCL-XL assay, TR-FRET)", "assay_type": "binding", "conditions": "His-BCL-XL / Bad BH3 peptide, median", "how_it_was_run": "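His-tagged human BCL-XL (aa 1-212, 1 nM final) was preincubated 10 min at 22 °C with compound (11 concentrations, 0.1 nM–20 μM), then biotinylated Bad BH3 peptide (1 nM) and TR-FRET reagents were added. Incubation: 1 h at 22 °C, then overnight at 4 °C, pH 7 Tris buffer. IC50 from 4-parameter fit of 665/620 ratio.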"}, "SUDHL5 [2]": {"tested_on": "SUDHL5", "assay": "Induction of cytotoxicity (Assay 6), SUDHL5", "conditions": "read-out: Cytotox SUDHL5 [M] (median) IC50, CellTiter-Glo, 5 hours, SUDHL5"}, "SUDHL10": {"target": "SUDHL10", "assay": "Induction of caspase-3/7 activity (Assay 4), SUDHL10", "assay_type": "cell-based", "conditions": "caspase-3/7 induction, median", "how_it_was_run": "(§1)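 Caspase-3/7 activity measured by Caspase-Glo 3/7 luminescence in DLBCL cells after 3 h compound treatment at 37 °C. Medium-only background subtracted. EC50 fitted with C0 fixed at 1 and top set to the reference compound's plateau/max induction.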"}, "SUDHL5 [3]": {"target": "SUDHL5", "assay": "Induction of caspase-3/7 activity (Assay 4), SUDHL5", "assay_type": "cell-based", "conditions": "caspase-3/7 induction, median", "how_it_was_run": "as §1"}}, "note": "Where a name gives a salt, the structure may show the parent alone.", "data": [{"smiles": "Cc1c2c(nn1C)CN(C1CC1)S(=O)(=O)CCCn1c(C(=O)O)c(CCCOc3cccc4ccccc34)c3ccc(Cl)c-2c31", "note": "[Example 40, (rac)-4-chloro-14-cyclopropyl-2,3-dimethyl-7-[3-(1-naphthyloxy)propyl]-11,12,14,15-tetrahydro-2H,10H-pyrazolo[3′,4′:4,5][1,2,8]thiadiazacycloundecino[6,7,8-hi]indole-8-carboxylic acid 13,13-dioxide]", "values": [{"measurement": "IC50", "setting": "SUDHL5 [1]; 72 hours", "result": "2.6e-06", "unit": "M"}, {"measurement": "IC50", "setting": "BCL-XL", "result": 19000, "unit": "nM"}, {"measurement": "IC50", "setting": "SUDHL5 [2]", "result": "2e-06", "unit": "M"}, {"measurement": "EC50", "setting": "SUDHL10; 3 hours", "result": 3300, "unit": "nM"}, {"measurement": "EC50", "setting": "SUDHL5 [3]; 3 hours", "result": 1900, "unit": "nM"}]}, {"smiles": "Cc1c2c(nn1C)CN(C)S(=O)(=O)CCCn1c(C(=O)O)c(CCCOc3cccc4ccccc34)c3ccc(Cl)c-2c31", "note": "(racemic) [Example 4, (rac)-4-Chloro-2,3,14-trimethyl-7-{3-[(naphthalen-1-yl)oxy]propyl}-13,13-dioxo-10,11,12,13,14,15-hexahydro-2H-13λ^6-pyrazolo[3′,4′:4,5][1,2,8]thiadiazacycloundecino-[6,7,8-hi]indole-8-carboxylic acid]", "values": [{"measurement": "IC50", "setting": "SUDHL5 [1]; 72 hours", "result": "9.2e-07", "unit": "M"}, {"measurement": "IC50", "setting": "BCL-XL", "result": "> 20000", "unit": "nM"}, {"measurement": "IC50", "setting": "SUDHL5 [2]", "result": "8.1e-07", "unit": "M"}, {"measurement": "EC50", "setting": "SUDHL10; 3 hours", "result": 1600, "unit": "nM"}, {"measurement": "EC50", "setting": "SUDHL5 [3]; 3 hours", "result": 630, "unit": "nM"}]}, {"smiles": "Cc1c2c(nn1C)CN(C)S(=O)(=O)CCCn1c(C(=O)O)c(CCCOc3cccc4c3CCCC4)c3ccc(F)c-2c31", "note": "(racemic) [Example 29, (rac)-13-Fluoro-8,11,12-trimethyl-1-(3-((5,6,7,8-tetrahydronaphthalen-1-yl)oxy)propyl)-5,6,9,11-tetrahydro-4H,8H-pyrazolo[3′,4′:4,5][1]thia[2,8]diazacycloundecino[6,7,8-hi]indole-2-carboxylic acid 7,7-dioxide]", "values": [{"measurement": "IC50", "setting": "SUDHL5 [1]; Homo sapiens, SU-DHL-5, 72 h", "result": "5e-07", "unit": "M"}, {"measurement": "IC50", "setting": "BCL-XL", "result": "> 20000", "unit": "nM"}, {"measurement": "IC50", "setting": "SUDHL5 [2]; Homo sapiens, SU-DHL-5, 5 h", "result": "1.8e-06", "unit": "M"}, {"measurement": "EC50", "setting": "SUDHL10; Homo sapiens, SU-DHL10, 3 h", "result": 4500, "unit": "nM"}, {"measurement": "EC50", "setting": "SUDHL5 [3]; Homo sapiens, SU-DHL-5, 3 h", "result": 1500, "unit": "nM"}]}, {"smiles": "CCc1c2c(nn1C)CN(C)S(=O)(=O)CCCn1c(C(=O)O)c(CCCOc3cccc4cc(F)ccc34)c3ccc(Cl)c-2c31", "note": "(single isomer, unassigned; enantiomer 1) [Example 36, (+)-4-chloro-3-ethyl-7-{3-[(6-fluoronaphthalen-1-yl)oxy]propyl}-2,14-dimethyl-13,13-dioxo-10,11,12,13,14,15-hexahydro-2H-13lambda^6-pyrazolo[3′,4′:4,5][1,2,8]thiadiazacycloundecino-[6,7,8-hi]indole-8-carboxylic acid (Enantiomer 1)]", "values": [{"measurement": "IC50", "setting": "SUDHL5 [1]; 72 hours", "result": "1.4e-07", "unit": "M"}, {"measurement": "IC50", "setting": "BCL-XL", "result": "> 20000", "unit": "nM"}, {"measurement": "IC50", "setting": "SUDHL5 [2]", "result": "1.6e-07", "unit": "M"}, {"measurement": "EC50", "setting": "SUDHL10; 3 hours", "result": 200, "unit": "nM"}, {"measurement": "EC50", "setting": "SUDHL5 [3]; 3 hours", "result": 85, "unit": "nM"}]}, {"smiles": "Cc1c2c(nn1C)CNS(=O)(=O)CCCn1c(C(=O)O)c(CCCOc3cccc4cc(F)ccc34)c3ccc(Cl)c-2c31", "note": "(single isomer, unassigned; enantiomer 1) [Example 51, 4-chloro-7-{3-[(6-fluoronaphthalen-1-yl)oxy]propyl}-2,3-dimethyl-13,13-dioxo-10,11,12,13,14,15-hexahydro-2H-13lambda^6-pyrazolo[3′,4′:4,5][1,2,8]thiadiazacycloundecino[6,7,8-hi]indole-8-carboxylic acid (Enantiomer 1)]", "values": [{"measurement": "IC50", "setting": "SUDHL5 [1]; 72 hours", "result": "4.1e-07", "unit": "M"}, {"measurement": "IC50", "setting": "BCL-XL", "result": "> 20000", "unit": "nM"}, {"measurement": "IC50", "setting": "SUDHL5 [2]", "result": "5e-07", "unit": "M"}, {"measurement": "EC50", "setting": "SUDHL10; 3 hours", "result": 490, "unit": "nM"}, {"measurement": "EC50", "setting": "SUDHL5 [3]; 3 hours", "result": 340, "unit": "nM"}]}, {"smiles": "Cc1c2c(nn1C)CN(C1CC1)S(=O)(=O)CCCn1c(C(=O)O)c(CCCOc3cccc4cc(F)ccc34)c3ccc(Cl)c-2c31", "note": "(single isomer, unassigned; enantiomer 2) [Example 43, (+)-4-chloro-14-cyclopropyl-7-{3-[(6-fluoro-1-naphthyl)oxy]propyl}-2,3-dimethyl-11,12,14,15-tetrahydro-2H,10H-pyrazolo[3′,4′:4,5][1,2,8]thiadiazacycloundecino[6,7,8-hi]indole-8-carboxylic acid 13,13-dioxide N-diethylamine salt (Enantiomer 2)]", "values": [{"measurement": "IC50", "setting": "SUDHL5 [1]; 72 hours", "result": "7e-06", "unit": "M"}, {"measurement": "IC50", "setting": "BCL-XL", "result": "> 20000", "unit": "nM"}, {"measurement": "IC50", "setting": "SUDHL5 [2]", "result": "9.6e-06", "unit": "M"}, {"measurement": "EC50", "setting": "SUDHL10; 3 hours", "result": 9400, "unit": "nM"}, {"measurement": "EC50", "setting": "SUDHL5 [3]; 3 hours", "result": 6100, "unit": "nM"}]}, {"smiles": "CCc1c2c(nn1C)CN(C)S(=O)(=O)CCCn1c(C(=O)O)c(CCCOc3cc(C)c(Cl)c(C)c3)c3ccc(Cl)c-2c31", "note": "[Example 22, (rac)-13-Chloro-1-(3-(4-chloro-3,5-dimethylphenoxy)propyl)-12-ethyl-8,11-dimethyl-4,5,6,8,9,11-hexahydropyrazolo[3′,4′:4,5][1,2,8]thiadiazacycloundecino[6,7,8-hi]indole-2-carboxylic acid 7,7-dioxide]", "values": [{"measurement": "IC50", "setting": "SUDHL5 [1]; Homo sapiens, SU-DHL-5, 72 h", "result": "1.9e-06", "unit": "M"}, {"measurement": "IC50", "setting": "BCL-XL", "result": "> 20000", "unit": "nM"}, {"measurement": "IC50", "setting": "SUDHL5 [2]; Homo sapiens, SU-DHL-5, 5 h", "result": "2.1e-06", "unit": "M"}, {"measurement": "EC50", "setting": "SUDHL10; Homo sapiens, SU-DHL10, 3 h", "result": 3300, "unit": "nM"}, {"measurement": "EC50", "setting": "SUDHL5 [3]; Homo sapiens, SU-DHL-5, 3 h", "result": 1800, "unit": "nM"}]}, {"smiles": "Cc1c2c(nn1C)C(CCN1CCOCC1)N(C)S(=O)(=O)CCCn1c(C(=O)O)c(CCCOc3cccc4ccccc34)c3cccc-2c31", "note": "(racemic) [Example 44, (rac)-2,3,14-trimethyl-15-[2-(rac)-(morpholin-4-yl)ethyl]-7-[3-(1-naphthyloxy)propyl]-11,12,14,15-tetrahydro-2H,10H-pyrazolo[3′,4′:4,5][1,2,8]thiadiazacycloundecino[6,7,8-hi]indole-8-carboxylic acid 13,13-dioxide (Mixture of Stereoisomers)]", "values": [{"measurement": "IC50", "setting": "SUDHL5 [1]; Homo sapiens, SU-DHL-5, 72 h", "result": "9.2e-07", "unit": "M"}, {"measurement": "IC50", "setting": "BCL-XL", "result": "> 20000", "unit": "nM"}, {"measurement": "IC50", "setting": "SUDHL5 [2]; Homo sapiens, SU-DHL-5, 5 h", "result": "1.3e-06", "unit": "M"}, {"measurement": "EC50", "setting": "SUDHL10; Homo sapiens, SU-DHL10, 3 h", "result": 1700, "unit": "nM"}, {"measurement": "EC50", "setting": "SUDHL5 [3]; Homo sapiens, SU-DHL-5, 3 h", "result": 1100, "unit": "nM"}]}, {"smiles": "Cc1c2c(nn1C)C(CCN1CCOCC1)N(C)S(=O)(=O)CCCn1c(C(=O)O)c(CCCOc3cccc4ccccc34)c3cccc-2c31", "note": "(single isomer, unassigned; enantiomer 1) [Example 45, 2,3,14-trimethyl-15-[2-(morpholin-4-yl)ethyl]-7-{3-[(naphthalen-1-yl)oxy]propyl}-13,13-dioxo-10,11,12,13,14,15-hexahydro-2H-13lambda^6-pyrazolo[3′,4′:4,5][1,2,8]thiadiazacycloundecino[6,7,8-hi]indole-8-carboxylic acid N-ethylethanamine Salt (Enantiomer 1)]", "values": [{"measurement": "IC50", "setting": "SUDHL5 [1]; 72 hours", "result": "1.7e-05", "unit": "M"}, {"measurement": "IC50", "setting": "BCL-XL", "result": 18000, "unit": "nM"}, {"measurement": "IC50", "setting": "SUDHL5 [2]", "result": "2e-05", "unit": "M"}, {"measurement": "EC50", "setting": "SUDHL10; 3 hours", "result": 23000, "unit": "nM"}, {"measurement": "EC50", "setting": "SUDHL5 [3]; 3 hours", "result": 27000, "unit": "nM"}]}, {"smiles": "Cc1c2c(nn1C)C(CCN1CCOCC1)N(C)S(=O)(=O)CCCn1c(C(=O)O)c(CCCOc3cccc4cc(F)ccc34)c3ccc(Cl)c-2c31", "note": "(racemic) [Example 48, (rac)-4-chloro-7-{3-[(6-fluoro-1-naphthyl)oxy]propyl}-2,3,14-trimethyl-15-(rac)-[2-(morpholin-4-yl)ethyl]-11,12,14,15-tetrahydro-2H,10H-pyrazolo[3′,4′:4,5][1,2,8]thiadiazacycloundecino[6,7,8-hi]indole-8-carboxylic acid 13,13-dioxide (Mixture of Stereoisomers)]", "values": [{"measurement": "IC50", "setting": "SUDHL5 [1]; Homo sapiens, SU-DHL-5, 72 h", "result": "3.1e-08", "unit": "M"}, {"measurement": "IC50", "setting": "BCL-XL", "result": "> 20000", "unit": "nM"}, {"measurement": "IC50", "setting": "SUDHL5 [2]", "result": "1.4e-08", "unit": "M"}, {"measurement": "EC50", "setting": "SUDHL10; 3 hours", "result": 9.7, "unit": "nM"}, {"measurement": "EC50", "setting": "SUDHL5 [3]; 3 hours", "result": 13, "unit": "nM"}]}]}
